Reference: PMC5218480 (PLoS ONE, 2017)

System: MV-4-11 cells
Assay: Gene expression microarray analysis (Affymetrix PrimeView) and GSEA
Format: cell-based, human
Parameters: RFU PODN (11730768_x_at) / Fold change /veh PODN (11730768_x_at) / RFU LINC00158 (11744669_a_at) / Fold change /veh LINC00158 (11744669_a_at) / RFU DUSP10 (11751237_a_at) / Fold change /veh DUSP10 (11751237_a_at) / RFU ID3 (11757404_x_at) / Fold change /veh ID3 (11757404_x_at) / RFU PLEKHG5 (11737974_s_at) / Fold change /veh PLEKHG5 (11737974_s_at) / RFU LRRC4B (11730491_at) / Fold change /veh LRRC4B (11730491_at) / RFU GIMAP4 (11747438_a_at) / Fold change /veh GIMAP4 (11747438_a_at) / RFU KRT8 (11758183_x_at) / Fold change /veh KRT8 (11758183_x_at) / RFU CNN1 (11734310_a_at) / Fold change /veh CNN1 (11734310_a_at) / RFU VPS37D (11726825_at) / Fold change /veh VPS37D (11726825_at) / RFU C10orf10 (11716522_x_at) / Fold change /veh C10orf10 (11716522_x_at) / RFU KIR2DL2 /// KIR2DL4 /// KIR2DL5A /// KIR2DL5B /// KIR2DS1 /// KIR2DS2 /// KIR2DS3 /// KIR2DS4 /// KIR3DL3 /// KIR3DL3 /// KIR3DS1 (11738374_at) / Fold change /veh KIR2DL2 /// KIR2DL4 /// KIR2DL5A /// KIR2DL5B /// KIR2DS1 /// KIR2DS2 /// KIR2DS3 /// KIR2DS4 /// KIR3DL3 /// KIR3DL3 /// KIR3DS1 (11738374_at) / RFU C1QL1 (11718748_at) / Fold change /veh C1QL1 (11718748_at) / RFU TMPRSS4 (11747572_a_at) / Fold change /veh TMPRSS4 (11747572_a_at) / RFU HAMP (11756126_x_at) / Fold change /veh HAMP (11756126_x_at) / RFU RNFT2 (11725882_a_at) / Fold change /veh RNFT2 (11725882_a_at) / RFU NR4A2 (11747474_a_at) / Fold change /veh NR4A2 (11747474_a_at) / RFU ABCC12 (11746883_a_at) / Fold change /veh ABCC12 (11746883_a_at) / RFU TMEM136 (11760407_x_at) / Fold change /veh TMEM136 (11760407_x_at) / RFU CLDN22 /// WWC2 (11732394_at) / Fold change /veh CLDN22 /// WWC2 (11732394_at) / RFU HLA-DPB1 (11760878_x_at) / Fold change /veh HLA-DPB1 (11760878_x_at) / RFU SPINT1 (11716480_a_at) / Fold change /veh SPINT1 (11716480_a_at) / RFU GAP43 (11754022_s_at) / Fold change /veh GAP43 (11754022_s_at) / RFU A4GNT (11735810_at) / Fold change /veh A4GNT (11735810_at) / RFU PRB3 (11715151_x_at) / Fold change /veh PRB3 (11715151_x_at) / RFU TUBB4B (11761932_at) / Fold change /veh TUBB4B (11761932_at) / RFU CAPN14 (11732068_a_at) / Fold change /veh CAPN14 (11732068_a_at) / RFU TMCC2 (11721928_a_at) / Fold change /veh TMCC2 (11721928_a_at) / RFU IRGQ (11745062_a_at) / Fold change /veh IRGQ (11745062_a_at) / RFU FAM174B (11720279_a_at) / Fold change /veh FAM174B (11720279_a_at) / RFU TMPRSS4 (11748680_a_at) / Fold change /veh TMPRSS4 (11748680_a_at) / RFU FAM212B (11763350_a_at) / Fold change /veh FAM212B (11763350_a_at) / RFU PLEKHG5 (11743358_a_at) / Fold change /veh PLEKHG5 (11743358_a_at) / RFU ZSCAN30 (11745921_a_at) / Fold change /veh ZSCAN30 (11745921_a_at) / RFU CMKLR1 (11741424_a_at) / Fold change /veh CMKLR1 (11741424_a_at) / RFU LOC101060620 /// MAPK8IP1 (11723275_at) / Fold change /veh LOC101060620 /// MAPK8IP1 (11723275_at) / RFU SPTSSB (11747773_x_at) / Fold change /veh SPTSSB (11747773_x_at) / RFU PRSS12 (11739890_at) / Fold change /veh PRSS12 (11739890_at) / RFU BIN1 (11741810_x_at) / Fold change /veh BIN1 (11741810_x_at) / RFU WNT11 (11732464_a_at) / Fold change /veh WNT11 (11732464_a_at) / RFU C10orf10 (11716521_a_at) / Fold change /veh C10orf10 (11716521_a_at) / RFU C5orf56 (11738089_at) / Fold change /veh C5orf56 (11738089_at) / RFU CYB561 (11721691_x_at) / Fold change /veh CYB561 (11721691_x_at) / RFU ANKRD19P (11752326_a_at) / Fold change /veh ANKRD19P (11752326_a_at) / RFU OR2T12 /// OR2T33 /// OR2T8 (11738714_s_at) / Fold change /veh OR2T12 /// OR2T33 /// OR2T8 (11738714_s_at) / RFU VCAN (11748164_a_at) / Fold change /veh VCAN (11748164_a_at) / RFU JSRP1 (11732532_at) / Fold change /veh JSRP1 (11732532_at) / RFU KRTAP10-11 (11738290_x_at) / Fold change /veh KRTAP10-11 (11738290_x_at) / RFU MYO3A (11730013_a_at) / Fold change /veh MYO3A (11730013_a_at) / RFU EBF3 (11725865_a_at) / Fold change /veh EBF3 (11725865_a_at) / RFU CAMK2N1 (11719241_x_at) / Fold change /veh CAMK2N1 (11719241_x_at) / RFU C5orf56 (11738088_a_at) / Fold change /veh C5orf56 (11738088_a_at) / RFU OLFML3 (11715873_a_at) / Fold change /veh OLFML3 (11715873_a_at) / RFU LOC100653217 /// NTM (11731650_a_at) / Fold change /veh LOC100653217 /// NTM (11731650_a_at) / RFU MAPK11 (11762145_a_at) / Fold change /veh MAPK11 (11762145_a_at) / RFU FIZ1 (11724087_x_at) / Fold change /veh FIZ1 (11724087_x_at) / RFU OASL (11726364_x_at) / Fold change /veh OASL (11726364_x_at) / RFU SOX15 (11748057_x_at) / Fold change /veh SOX15 (11748057_x_at) / RFU CD79A (11719716_a_at) / Fold change /veh CD79A (11719716_a_at) / RFU HIST1H1D (11736915_at) / Fold change /veh HIST1H1D (11736915_at) / RFU CASKIN2 (11723855_a_at) / Fold change /veh CASKIN2 (11723855_a_at) / RFU LOC730098 (11760151_x_at) / Fold change /veh LOC730098 (11760151_x_at) / RFU OR4N2 (11742367_at) / Fold change /veh OR4N2 (11742367_at) / RFU PRRT2 (11749266_a_at) / Fold change /veh PRRT2 (11749266_a_at) / RFU SNX32 (11753110_a_at) / Fold change /veh SNX32 (11753110_a_at) / RFU CDHR5 (11726645_a_at) / Fold change /veh CDHR5 (11726645_a_at) / RFU RCAN1 (11760418_a_at) / Fold change /veh RCAN1 (11760418_a_at) / RFU FAM167A (11723789_a_at) / Fold change /veh FAM167A (11723789_a_at) / RFU FAM26E (11764081_at) / Fold change /veh FAM26E (11764081_at) / RFU ISYNA1 (11749810_s_at) / Fold change /veh ISYNA1 (11749810_s_at) / RFU ACY1 (11761880_at) / Fold change /veh ACY1 (11761880_at) / RFU 11764098_at / Fold change /veh 11764098_at / RFU SAMD14 (11745864_x_at) / Fold change /veh SAMD14 (11745864_x_at) / RFU NPB (11741838_a_at) / Fold change /veh NPB (11741838_a_at) / RFU TMPRSS6 (11731388_a_at) / Fold change /veh TMPRSS6 (11731388_a_at) / RFU KRTAP10-2 (11738614_at) / Fold change /veh KRTAP10-2 (11738614_at) / RFU ARHGAP8 /// PRR5-ARHGAP8 (11727945_x_at) / Fold change /veh ARHGAP8 /// PRR5-ARHGAP8 (11727945_x_at) / RFU KRTAP5-7 /// NADSYN1 (11734609_at) / Fold change /veh KRTAP5-7 /// NADSYN1 (11734609_at) / RFU RASL12 (11751679_a_at) / Fold change /veh RASL12 (11751679_a_at) / RFU CDKN2B (11736163_a_at) / Fold change /veh CDKN2B (11736163_a_at) / RFU PRF1 (11729649_at) / Fold change /veh PRF1 (11729649_at) / RFU, ZNF638 /// ZNF638-IT1 / Fold change vs veh, ZNF638 /// ZNF638-IT1 / RFU, PANK3 / Fold change vs veh, PANK3 / RFU, SH3YL1 / Fold change vs veh, SH3YL1 / RFU, ZEB2 / Fold change vs veh, ZEB2 / RFU, NRIP1 / Fold change vs veh, NRIP1 / RFU, PTTG1IP / Fold change vs veh, PTTG1IP / RFU, CAPN2 / Fold change vs veh, CAPN2 / RFU, MED14 / Fold change vs veh, MED14 / RFU, SNORA58 / Fold change vs veh, SNORA58 / RFU, C1orf63 / Fold change vs veh, C1orf63 / RFU, LRRFIP1 / Fold change vs veh, LRRFIP1 / RFU, NDUFAF7 / Fold change vs veh, NDUFAF7 / RFU, SLC12A2 / Fold change vs veh, SLC12A2 / RFU, IBTK / Fold change vs veh, IBTK / RFU, ESF1 / Fold change vs veh, ESF1 / Fold change vs veh, TMEM50B / RFU, TAOK1 / Fold change vs veh, TAOK1 / RFU, ACBD3 / Fold change vs veh, ACBD3 / RFU, TMA16 / Fold change vs veh, TMA16 / RFU, RWDD3 / Fold change vs veh, RWDD3 / RFU, BCAT1 / Fold change vs veh, BCAT1 / RFU, EDEM3 / Fold change vs veh, EDEM3 / RFU, TMEM33 / Fold change vs veh, TMEM33 / RFU, WDR75 / Fold change vs veh, WDR75 / RFU, AHCTF1 / Fold change vs veh, AHCTF1 / RFU, TFRC / Fold change vs veh, TFRC / RFU, ZDHHC17 / Fold change vs veh, ZDHHC17 / RFU, NOM1 / Fold change vs veh, NOM1 / RFU, ARL8B / Fold change vs veh, ARL8B / RFU, ZBTB11 / Fold change vs veh, ZBTB11 / RFU, TAMM41 / Fold change vs veh, TAMM41 / RFU, KIAA1704 /// LOC100996395 / Fold change vs veh, KIAA1704 /// LOC100996395 / RFU, ING1 / Fold change vs veh, ING1 / RFU, TRMT61B / Fold change vs veh, TRMT61B / RFU, FUBP3 / Fold change vs veh, FUBP3 / RFU, TP53 / Fold change vs veh, TP53 / RFU, TNKS2 / Fold change vs veh, TNKS2 / RFU, ZFP14 / Fold change vs veh, ZFP14 / RFU, ACTR2 / Fold change vs veh, ACTR2 / RFU, PPP3R1 / Fold change vs veh, PPP3R1 / RFU, PIK3R1 / Fold change vs veh, PIK3R1 / RFU, HNRNPA1 / Fold change vs veh, HNRNPA1 / RFU, RNF170 / Fold change vs veh, RNF170 / RFU, ZNF28 / Fold change vs veh, ZNF28 / RFU, RNGTT / Fold change vs veh, RNGTT / RFU, OGT / Fold change vs veh, OGT / RFU, BRD1 / Fold change vs veh, BRD1 / RFU, MARS / Fold change vs veh, MARS / RFU, ZNF655 / Fold change vs veh, ZNF655 / RFU, FAHD1 / Fold change vs veh, FAHD1 / RFU, BDP1 / Fold change vs veh, BDP1 / RFU, LRRCC1 / Fold change vs veh, LRRCC1 / RFU, ARID1A / Fold change vs veh, ARID1A / RFU, ZNF146 / Fold change vs veh, ZNF146 / RFU, ZNF330 / Fold change vs veh, ZNF330 / RFU, GPN3 / Fold change vs veh, GPN3 / RFU, C9orf123 / Fold change vs veh, C9orf123 / RFU, N4BP2L2 / Fold change vs veh, N4BP2L2 / RFU, ARFIP1 / Fold change vs veh, ARFIP1 / RFU, FAM179B / Fold change vs veh, FAM179B / RFU, BCL10 / Fold change vs veh, BCL10 / RFU, UHRF1BP1L / Fold change vs veh, UHRF1BP1L / RFU, BET1 / Fold change vs veh, BET1 / RFU, CNOT2 / Fold change vs veh, CNOT2 / RFU, ZNF268 / Fold change vs veh, ZNF268 / Fold change vs veh, ZNF507 / RFU, DGCR2 / Fold change vs veh, DGCR2 / RFU, WDSUB1 / Fold change vs veh, WDSUB1 / Fold change vs veh, HSP90B1 /// MIR3652 / RFU, ADSS / Fold change vs veh, ADSS / RFU, GK / Fold change vs veh, GK / RFU, ZNF148 / Fold change vs veh, ZNF148 / RFU, TAF9 / Fold change vs veh, TAF9 / RFU, SLC1A5 / Fold change vs veh, SLC1A5 / RFU, SLMO2 / Fold change vs veh, SLMO2 / RFU, ABCC4 / Fold change vs veh, ABCC4 / RFU, LOC101060439 /// RAP1B / Fold change vs veh, LOC101060439 /// RAP1B / RFU, RFX7 / Fold change vs veh, RFX7 / RFU, GTPBP10 / Fold change vs veh, GTPBP10 / RFU, CNEP1R1 / Fold change vs veh, CNEP1R1 / RFU, BIVM-ERCC5 /// ERCC5 / Fold change vs veh, BIVM-ERCC5 /// ERCC5 / RFU, ILF3 / Fold change vs veh, ILF3 / RFU 11762660_at / Fold change /veh 11762660_at / RFU VCAN (11757783_s_at) / Fold change /veh VCAN (11757783_s_at) / RFU DDX43 (11728927_at) / Fold change /veh DDX43 (11728927_at) / RFU KRT8 (11758188_x_at) / Fold change /veh KRT8 (11758188_x_at) / RFU NKD1 (11759106_at) / Fold change /veh NKD1 (11759106_at) / RFU SRD5A1 (11742802_a_at) / Fold change /veh SRD5A1 (11742802_a_at) / RFU TPSAB1 /// TPSB2 (11721975_s_at) / Fold change /veh TPSAB1 /// TPSB2 (11721975_s_at) / RFU GSTM3 (11746129_a_at) / Fold change /veh GSTM3 (11746129_a_at) / RFU IL23R (11737362_x_at) / Fold change /veh IL23R (11737362_x_at) / RFU TMEM51 (11727254_a_at) / Fold change /veh TMEM51 (11727254_a_at) / RFU PIWIL2 (11732686_x_at) / Fold change /veh PIWIL2 (11732686_x_at) / RFU ORM1 (11744905_x_at) / Fold change /veh ORM1 (11744905_x_at) / RFU CCDC152 (11743942_at) / Fold change /veh CCDC152 (11743942_at) / RFU ECM1 (11717891_a_at) / Fold change /veh ECM1 (11717891_a_at) / RFU IL23R (11748794_a_at) / Fold change /veh IL23R (11748794_a_at) / RFU TNFAIP8L3 (11732012_x_at) / Fold change /veh TNFAIP8L3 (11732012_x_at) / RFU MBOAT4 (11741988_at) / Fold change /veh MBOAT4 (11741988_at) / RFU 11764193_at / Fold change /veh 11764193_at / RFU TMEM53 (11763286_at) / Fold change /veh TMEM53 (11763286_at) / RFU MAGEB2 (11727129_at) / Fold change /veh MAGEB2 (11727129_at) / RFU TMEM200A (11744735_a_at) / Fold change /veh TMEM200A (11744735_a_at) / RFU CCDC152 (11751479_a_at) / Fold change /veh CCDC152 (11751479_a_at) / RFU FAM211A (11726209_a_at) / Fold change /veh FAM211A (11726209_a_at) / RFU RGS16 (11746705_a_at) / Fold change /veh RGS16 (11746705_a_at) / RFU VCAN (11755009_s_at) / Fold change /veh VCAN (11755009_s_at) / RFU RHOB (11743442_s_at) / Fold change /veh RHOB (11743442_s_at) / RFU RGS16 (11720943_a_at) / Fold change /veh RGS16 (11720943_a_at) / RFU RGS16 (11720944_at) / Fold change /veh RGS16 (11720944_at) / RFU, VPS4B / Fold change vs veh, VPS4B / RFU, CREB1 / Fold change vs veh, CREB1 / RFU, DNAJC13 / Fold change vs veh, DNAJC13 / RFU, GNAQ / Fold change vs veh, GNAQ / RFU, CDK5R1 / Fold change vs veh, CDK5R1 / RFU, ZRANB3 / Fold change vs veh, ZRANB3 / RFU, CUL4A / Fold change vs veh, CUL4A / RFU, CCNY / Fold change vs veh, CCNY / RFU, UFL1 / Fold change vs veh, UFL1 / RFU, COG3 / Fold change vs veh, COG3 / RFU, DIAPH2 / Fold change vs veh, DIAPH2 / RFU, SKA2 / Fold change vs veh, SKA2 / RFU, AFF3 / Fold change vs veh, AFF3 / RFU, LMF1 / Fold change vs veh, LMF1 / RFU, IPO11 / Fold change vs veh, IPO11 / RFU, DFFB / Fold change vs veh, DFFB / RFU, FOXP1 / Fold change vs veh, FOXP1 / RFU, CARD8 / Fold change vs veh, CARD8 / RFU, STRN3 / Fold change vs veh, STRN3 / RFU, ADK / Fold change vs veh, ADK / RFU, RASSF2 / Fold change vs veh, RASSF2 / RFU, WIPF1 / Fold change vs veh, WIPF1 / RFU, LARP1B / Fold change vs veh, LARP1B / RFU, RASA1 / Fold change vs veh, RASA1 / RFU, RB1 / Fold change vs veh, RB1 / RFU, PPFIA1 / Fold change vs veh, PPFIA1 / RFU, MAT2A / Fold change vs veh, MAT2A / RFU, CCT5 / Fold change vs veh, CCT5 / RFU, WDR92 / Fold change vs veh, WDR92 / RFU, CUX1 / Fold change vs veh, CUX1 / RFU, TTC7A / Fold change vs veh, TTC7A / RFU, TMEM135 / Fold change vs veh, TMEM135 / RFU, DEPTOR / Fold change vs veh, DEPTOR / RFU, CPM / Fold change vs veh, CPM / RFU, DNAJB6 / Fold change vs veh, DNAJB6 / RFU, CACNA2D3 / Fold change vs veh, CACNA2D3 / RFU, DTX4 / Fold change vs veh, DTX4 / RFU, TFCP2 / Fold change vs veh, TFCP2 / RFU, GMCL1 /// GMCL1P1 / Fold change vs veh, GMCL1 /// GMCL1P1 / RFU, AEBP2 / Fold change vs veh, AEBP2 / RFU, SNHG1 /// SNORD22 /// SNORD25 /// SNORD26 /// SNORD27 /// SNORD28 /// SNORD29 /// SNORD31 / Fold change vs veh, SNHG1 /// SNORD22 /// SNORD25 /// SNORD26 /// SNORD27 /// SNORD28 /// SNORD29 /// SNORD31 / Fold change (Aza/veh), C12orf56 (ProbeSet 11735607_a_at) / Fold change (ACY-1035/veh), C12orf56 (ProbeSet 11735607_a_at) / Fold change (Aza/veh), FGFR1OP (ProbeSet 11751329_s_at) / Fold change (ACY-1035/veh), FGFR1OP (ProbeSet 11751329_s_at) / Fold change (Aza/veh), VPS36 (ProbeSet 11739960_a_at) / Fold change (ACY-1035/veh), VPS36 (ProbeSet 11739960_a_at) / RFU SYPL1 (11715823_x_at) / Fold change /veh SYPL1 (11715823_x_at) / RFU IGFBP7 (11715501_s_at) / Fold change /veh IGFBP7 (11715501_s_at) / RFU REEP3 (11722064_at) / Fold change /veh REEP3 (11722064_at) / RFU IGLL1 (11728026_x_at) / Fold change /veh IGLL1 (11728026_x_at): dose or concentration left out as unconfirmed
Conditions: ProbeSet 11732277_a_at; LIST D

For `Nc1ccc(-c2cccs2)cc1NC(=O)c1ccc2c(c1)cc(C1CC1)n2CCN1CCOCC1` [ACY-1035], the “Fold change vs veh, FOXP1” value was 0.94.
